Data on two compounds can be found in patent US20110152166A1, “METHOD OF MODULATION OF PROTEIN PHOSPHORYLATION-DEPENDENT CONFORMATIONAL TRANSITIONS WITH LOW MOLECULAR WEIGHT COMPOUNDS” (priority 2006, published 2011).

By Kd is commonly meant the equilibrium constant for the complex coming apart.

One assay concerns the target T1, PDK1 50-360 (Homo sapiens, UniProt O15530).
T1 construct: the catalytic domain of PDK1 (50-359) produced in SF9 insect cells; His-tag (pFastbac-HT, TEV site) (N, cleaved yes); made in house; host or cells: Sf9 insect cells (baculovirus, pFastbac-HT)
T1 sequence (O15530 50-359): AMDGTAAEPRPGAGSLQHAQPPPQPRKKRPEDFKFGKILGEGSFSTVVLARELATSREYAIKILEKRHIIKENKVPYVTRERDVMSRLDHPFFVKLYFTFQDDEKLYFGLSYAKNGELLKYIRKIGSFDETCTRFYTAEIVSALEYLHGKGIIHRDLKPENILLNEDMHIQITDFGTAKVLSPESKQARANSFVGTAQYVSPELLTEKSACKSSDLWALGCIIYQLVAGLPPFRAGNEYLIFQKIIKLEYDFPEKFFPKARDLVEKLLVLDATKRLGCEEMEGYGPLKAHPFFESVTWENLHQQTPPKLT
Description: Isothermal Titration Calorimetry. The conditions noted are these: ITC. It counts as binding. The protocol:
FIG. 8—Characterization of compound 1 interaction with PDK1 50-360 by Isothermal Titration Calorimetry (ITC). Upper panel, raw data of the titration of compound 1 into PDK1 50-360. Lower panel, integrated heats of injection, corrected for the heat of dilution, with the solid line corresponding to the best fit of the data using Origin™ software. The best fit corresponded to a model with one type of sites. […] The calorimetric titration was performed using the VP-ITC instrument from MicroCal Inc. (Northampton, Mass.) as previously described (Schaeffer et al., 2002) with the following modifications. PDK1 and compound 1 were prepared in 50 mM Tris-HCl (pH 7.5), 175 mM NaCl, 1 mM DTT and 3% DMSO. Titration was performed by 30 successive injections (10 μl) of compound 1 (0.9 mM) into a 1.41 ml reaction cell containing PDK1 50-360 ([…]). Raw calorimetric data were corrected for the heat of dilution, and analyzed using the program Origin™ provided by the manufacturer. Binding stoichiometry, enthalpy and equilibrium dissociation constants were determined by fitting corrected data to a model with a single binding site.

A further assay has as its target GST-S6K11-365 (Rattus norvegicus, UniProt P67999). Description: Surface plasmon resonance, S6K1 binding to tail peptides. On the set-up: made in house; host or cells: COS cells (printed 'COST'), co-transfected with pCMV5-myc-PDK1. On the procedure:
FIG. 13. The tail phosphate synergistically enhances the ability of the HM phosphate to activate S6K, dependent on the tail phosphate-binding site. (A) The kinase activity of purified kinase domain of S6K1 (S6K11-364), pre-phosphorylated by PDK1 in the activation loop, was determined in the presence of increasing concentrations of synthetic S6K1 tail peptide (residues 366-395) that was either non-phosphorylated (S371/T389), phosphorylated at Ser371 (pS371/T389) or Thr389 (5371/pT389) or phosphorylated at both sites (pS371/pT389). (B) The kinase activity of S6K11-364 and S6K11-364K144N, either pre-phosphorylated or not by PDK1, was determined in the absence or presence of 90 μM S371/pT389 or pS371/pT389. (C) pS371/pT389 S6K1 tail peptide was biotinylated and used to coat streptavidin Sensor Chips. The chips were thereafter analyzed for binding to purified GST-S6K11-365 or GST-56K11-365K144N. (A-C) Experiments were repeated at least 3 times and activity data (expressed as percent) are means±SD.
Sixty 146 cm^2 dishes with COST cells were co-transfected with pEBG-2T-S6K1-365 and pCMV5-myc-PDK1 (ratio 3:1) using calcium phosphate precipitation or with pEBG-2T-PKCζ and pCMV5-myc-PDK1 (ratio 3:1) using Fugene HD according to the manufacturers Instructions. Two days after transfection, the cells were harvested in lysis buffer as described above. […]

Chain of GST-S6K11-365 (P67999 24-388): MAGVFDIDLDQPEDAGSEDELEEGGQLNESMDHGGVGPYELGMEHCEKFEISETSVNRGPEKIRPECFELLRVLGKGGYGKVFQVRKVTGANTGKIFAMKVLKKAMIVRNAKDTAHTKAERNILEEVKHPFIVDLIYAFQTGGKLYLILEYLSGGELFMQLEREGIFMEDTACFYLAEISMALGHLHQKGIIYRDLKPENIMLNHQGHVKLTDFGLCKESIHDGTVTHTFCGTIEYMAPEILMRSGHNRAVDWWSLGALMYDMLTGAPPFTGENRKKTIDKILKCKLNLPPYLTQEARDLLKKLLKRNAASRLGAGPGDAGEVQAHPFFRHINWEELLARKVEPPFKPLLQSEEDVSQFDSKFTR

For the compound `O=C(O)CSC(CC(=O)c1ccc(Cl)cc1)c1ccccc1` (centres unmarked) [Compound 1], at PDK1 50-360, the “N (binding stoichiometry)” value is 1.0 ± 0.1, the TΔS was determined as 4.3 ± 0.2 kcal/mol and the ΔH is given as −2.1+0.1 kcal·mol^−1. At PDK1 50-360 (one type of sites, pH 7.5, 3% DMSO), the Kd stood at 18 µM.

Turning to “S371/T389: synthetic S6K1 tail peptide (residues 366-395), non-phosphorylated”, the “specific binding of S6K11-365 or S6K11-365K144N (in words)” value in the assay with GST-S6K11-365 is given as “No specific binding”.
